Reference: patent US20100031452A1, “AZO DYES” (Universite Catholique de Louvain, priority 2008, published 2010)
Values after ≈ are worked out from the molar mass of the structure shown. Like-named read-outs stand apart in the source and are kept apart here. Marks after values point to notes of the source that are not given here.

What was measured:
[1] = test system: bacterial cells (Lumistox assays); assay: Lumistox test (luminescence inhibition); type: cell-based
Method: (§1) Toxicity was assessed on human intestinal cells (Caco-2), bacterial cells (Lumistox assays) and fish eggs cells. Mutagenicity was assessed through classical Ames test.

[2] = test system: human intestinal cells (Caco-2); assay: Caco-2 cytotoxicity test; type: cell-based; settings: for Caco-2 cytotoxicity test (IC50 in g L^−1): Caco-2 human intestinal cells
Method: as §1
(§2) The toxicity of compound 4 has been measured on Caco-2 human cells as previously described, and compared with the toxicity of compound 1.

fish eggs cells = assay: Fish egg test; type: in vivo; settings: for Fish egg test (IC50 in mg L^−1): in vivo
Method: as §1

Ames test: mutagenicity = type: cell-based; settings: classical Ames test
Method: as §1

Caco-2 cytotoxicity test = type: cell-based, human; settings: Caco-2 cells; Caco-2 human intestinal cells; read-out: Caco-2 cytotoxicity test (IC50 in g L^−1)
Method: as §1, §2

[3] = classical Ames test; published data; cited from earlier work

Structure (SMILES)	Lumistox test % of luminescence inhibition at maximal OD ([1]; at maximal OD) [%]	Caco-2 cytotoxicity test (IC50 in g L^−1) [2] [µg/mL]	Fish egg test (IC50 in mg L^−1) (fish eggs cells) [µg/mL]	Ames test: mutagenicity (Ames test: mutagenicity)	further results
O=C(Nc1cc(S(=O)(=O)[O-])cc2cc(S(=O)(=O)[O-])c(N=Nc3cc(Nc4nc(Cl)nc(Nc5ccc(S(=O)(=O)[O-])cc5)n4)ccc3S(=O)(=O)[O-])c(O)c12)c1ccccc1.[Na+].[Na+].[Na+].[Na+] [Reactive Red 4]	25.9	700 ± 60	500 to 1000	Negative	–
Nc1c(S(=O)(=O)O)cc(/N=N/c2c(S(=O)(=O)O)cc(NC3CCCCC3)c3c2C(=O)c2ccccc2C3=O)c2c1C(=O)c1ccccc1C2=O [Compound 1, 1-[(4-amino-9,10-dioxo-3-sulfo-9,10-dihydroanthracen-1-yl)diazenyl]-4-cyclohexylamino-9,10-dioxo-9,10-dihydroanthracene-2-sulfonic acid]	–	–	–	Negative	Lumistox test % of luminescence inhibition at maximal OD ([1]; up to a maximal optical density (OD) of 1800): 41.6** %; IC50 (Caco-2 cytotoxicity test): > 1000 µg/mL; toxicity (in words) ([2]; in the range tested, with regards to other molecules available on the market): low toxicity; IC50 (fish eggs cells; read-out: Fish egg test (IC50 in mg L^−1)): 294 µg/mL (≈ 411 µM)
O=C1c2ccccc2C(=O)c2c(/N=N\c3cccc(S(=O)(=O)O)c3)c(S(=O)(=O)O)cc(NC3CCCCC3)c21 [Compound 4, 4-Cyclohexylamino-9,10-dioxo-1-(3-sulfo-phenylazo)-9,10-dihydro-anthracene-2-sulfonic acid]	–	–	–	–	toxicity less than the toxicity of compound 1 ([2]; Caco-2 human cells, FIG. 3, relative to compound 1): 30%
Nc1ccc2cc(S(=O)(=O)[O-])cc(O)c2c1N=Nc1ccc(Cl)cc1C(F)(F)F.[Na+] [Acid Red 299]	50.2	>1000	250 to 500	Positive	–
Nc1c(N=Nc2ccc(-c3ccc(N=Nc4cc(S(=O)(=O)[O-])c5ccccc5c4N)cc3)cc2)cc(S(=O)(=O)[O-])c2ccccc12.[Na+].[Na+] [Direct Red 28]	3.4	300 ± 20	<30	–	Ames test: mutagenicity [3]: Positive*
CCN(CCO)c1ccc(N=Nc2ccc([N+](=O)[O-])cc2)cc1 [Disperse Red 1]	–	>1000	250 to 500	Negative	Lumistox test % of luminescence inhibition at maximal OD ([1]; saturated solution): 61.3*** %
